The source of these data is patent publication US4316022A, “Benzo-as-triazine derivatives” (priority 1979, dated 1982).

Series [1] can be described thus: in vivo. The settings on record: mouse, po. On the procedure:
The toxicity of the new compounds according to the invention was determined on mice after oral administration. The chemical names of the reference compounds are as follows: […]

Series [2] relates to carrageenin-provoked paw oedema. Description: antiphlogistic (oedema-inhibiting) effect, carrageenin paw oedema on rats. The settings on record: for ED30: Rattus norvegicus, read-out: ED30 (antiphlogistic effect); for Therapeutical index (antiphlogistic effect): carrageenin paw oedema. In kind it is in vivo. The method, then:
The antiphlogistic (oedema-inhibiting) effect was tested on rats. 0.1 ml of a 1% carrageenin solution were injected into the plantar region of one of the hind paws. The volume of the paw was measured just before and 3 hours after the introduction of the oedema-provoking agent by a mercury plethysmometer.
(Carrageenan injected into the paw causes an acute inflammation.)

Series [3] relates to narcosis. Put plainly: narcosis potentiating effect on mice, method of Kaergaard. In kind it is in vivo. The settings on record: for ED50: Mus musculus, read-out: ED50 (narcosis potentiating effect). The method, then: The narcosis potentiating effect was determined on mice by the method of Kaergaard (Arch. Int. Pharmacodyn. 2, 170/1967/).
The test system of series [4] is acetic acid writhing. Put plainly: analgesic effect, acetic acid writhing test on mice. In kind it is in vivo. Particulars: for ED50: Mus musculus, read-out: ED50 (analgesic effect); for Therapeutical index (analgesic effect): writhing test. (In general: In writhing tests, fewer writhes than in controls are read as antinociception.)
Procedure: The analgesic effect of the new compounds according to the invention was determined on mice by the acetic acid writhing test.
The mark [5] stands for this setting: rats, dosage inhibiting inflammation by 30%, 3 hours after carrageenin.
[6] abbreviates: mice, oral, acetic acid given 1 h after treatment, writhings counted within 5 minutes.

Like-named read-outs stand apart in the source and are kept apart here.

Regarding `CC(=O)Oc1ccccc1C(=O)O` [Acetylsalicylic acid, reference compound], the LD50 (usually the dose expected to kill half of the subjects tested) in series [1] turned out to be 1500 mg/kg. For the same compound, the ED30 in series [2] (3 h) worked out at 180 mg/kg. In series [2] (rats), the “Therapeutical index (antiphlogistic effect)” value is listed as 8.33.

For `CC(=O)N1c2ccccc2-n2cnnc2N1C(C)=O` [Example 1, 4,5-diacetyl-4,5-dihydro-s-triazolo-[3,4-c]benzo-as-triazine], the 50% lethal dose (LD50) in series [1] came to 1100 mg/kg. Moreover, in series [2] (setting [5]), the ED30 came to 110 mg/kg. Besides, in series [2] (rats), the “Therapeutical index (antiphlogistic effect)” value came to 10. Further, in series [3] (mice, method of Kaergaard), the 50% effective dose (ED50) (usually the dose at which the effect has come halfway, by size or by number of responders) came out at 75 mg/kg and the “Therapeutical index (narcosis potentiating effect)” value stood at 15.

`CCC(=O)N1c2ccccc2-n2cnnc2N1C(=O)CC` [Example 3, 4,5-dipropionyl-4,5-dihydro-s-triazolo[3,4-c]benzo-as-triazine] gave an LD50 in series [1] of 2000 mg/kg. Also, the median effective dose (ED50) in series [4] (setting [6]) was 200 mg/kg; in series [3] (mice, method of Kaergaard), 80 mg/kg. Moreover, in series [4] (mice, oral), the “Therapeutical index (analgesic effect)” value was determined as 10. The “Therapeutical index (narcosis potentiating effect)” value in series [3] (mice, method of Kaergaard) is recorded as 25.

For the compound `CCC(=O)N1Nc2nncn2-c2ccccc21` [Example 4, 5-propionyl-4,5-dihydro-s-triazolo[3,4-c]benzo-as-triazine], the LD50 in series [1] stood at 1750 mg/kg. Besides, the median effective dose (ED50) worked out at 175 mg/kg in series [4] (setting [6]) and 140 mg/kg in series [3] (mice, method of Kaergaard). Besides, the “Therapeutical index (analgesic effect)” value in series [4] (mice, oral) was 10. Besides, in series [2] (setting [5]), the ED30 is 22 mg/kg. Moreover, in series [2] (rats), the “Therapeutical index (antiphlogistic effect)” value is on record as 79.55. Moreover, the “Therapeutical index (narcosis potentiating effect)” value in series [3] (mice, method of Kaergaard) is on record as 13.

`CCC(=O)N1c2ccccc2-n2c(SC)nnc2N1C(=O)CC` [Example 5, 1-methylthio-4,5-dipropionyl-4,5-dihydro-s-triazolo[3,4-c]benzo-as-triazin]: the 50% lethal dose (LD50) in series [1] came out at 1000 mg/kg. In addition, the 50% effective dose (ED50) in series [4] (setting [6]) stood at 100 mg/kg. Besides, the “Therapeutical index (analgesic effect)” value in series [4] (mice, oral) was 10. Further, in series [3] (mice, method of Kaergaard), the ED50 stood at 140 mg/kg and the “Therapeutical index (narcosis potentiating effect)” value was 7.

Consider `CCCc1c(O)n2c3nncn3c3ccccc3n2c1=O` [Example 11, 1-oxo-3-hydroxy-2-n-propyl-pyrazolo[1,2-a]-s-triazolo-[3,4-c]benzo-as-triazine], for which the LD50 in series [1] stood at 2000 mg/kg.

For the compound `CCCC(C)(COC(N)=O)COC(N)=O` [Meprobamate, 2-methyl-2-propyl-1,3-propanediol dicarbamate, reference compound], the LD50 in series [1] came to 1100 mg/kg. In addition, the 50% effective dose (ED50) in series [3] was 260 mg/kg. In series [3] (mice, method of Kaergaard), the “Therapeutical index (narcosis potentiating effect)” value is given as 4.2.

Take `CC(=O)Nc1ccc(O)cc1` [Paracetamol, N-(hydroxyphenyl)acetamide, reference compound]: the ED50 in series [4] (po) worked out at 180 mg/kg.

As to `CCCCC1C(=O)N(c2ccccc2)N(c2ccccc2)C1=O` [Phenylbutazone, 4-butyl-1,2-diphenyl-3,5-pyrazolidinedione, reference compound], the ED30 in series [2] (setting [5]) was 90 mg/kg.
